We go through five compounds from US10573426B2, “Fluorinated nitriles as dielectric gases” (3M INNOVATIVE PROPERTIES COMPANY, priority 2012, dated 2020).

One data set concerns rats. Put plainly: 4 hour inhalation LC50 in rats. Type of data set: in vivo. As to the method:
(§1) For example, heptafluoroisobutyronitrile and 2,3,3,3-tetrafluoro-2-(trifluoromethoxy) propanenitrile have 4 hour inhalation lethal concentration at 50% (“LC-50”, defined as the dose required to produce lethality in half the members of a tested population after a specified test duration) (in rats) values of about 15,000 ppm. […] The nitriles of the present disclosure achieve these lower toxicities without the addition of additives such as nitrite esters as in U.S. Pat. No. 4,547,316.

The nature of another data set: 6 hour inhalation LC50. The class given is in vivo. Conditions: species not given. As to the method:
as §1

For the compound `N#CC(F)(OC(F)(F)F)C(F)(F)F` (centres unmarked) [2,3,3,3-tetrafluoro-2-(trifluoromethoxy)propanenitrile], in the data set with rats, the “4 hour inhalation lethal concentration at 50% (LC-50)” value is “about 15,000 ppm”.
Turning to `N#CC(F)(F)C(F)(F)C(F)(F)F` [CF3CF2CF2CN], the “4 hour inhalation lethal concentration at 50% (LC-50)” value in the data set on rats is recorded as “less than 6,000 ppm”.
The same measure, in the same setting: the value for `N#CC(F)(F)C(F)(F)F` [CF3CF2CN] was 2731 ppm.
`N#CC(F)(F)F` [CF3CN]: the “6 hour inhalation LC50” value in “6 hour inhalation LC50” is recorded as 240 ppm.
`N#CC(F)(C(F)(F)F)C(F)(F)F` [heptafluoroisobutyronitrile, Heptafluoroisobutyronitrile]: the “4 hour inhalation lethal concentration at 50% (LC-50)” value in the data set with rats is on record as “about 15,000 ppm”.
